Test results: patent publication US5151502A, “Method for solubilizing membrane receptor proteins” (E. R. Squibb & Sons, Inc., priority 1991, dated 1992)

Legend:
AII receptor = experiment: Recovery of solubilized [125I]-SI-AII binding activity from BAMM; set-up: species or system bovine; conditions: DTNB 0.1 mM added to BAMM before solubilization; means ± standard errors, n = 4
Protocol: (§1) All procedures were performed at 4° C. unless otherwise noted. Solubilization of specific binding activity was carried out by incubation of BAMM with 5 mM CHAPS. […] The solubilized membranes were centrifuged at 176,000×g (50,000 rpm in a Beckman 80Ti rotor) for 1 hour. The soluble BAMM preparation was stored at […] Prior to assay, soluble BAMM protein was filtered through a 0.22 μm filter and treated with SM2 beads. SM2 treatment proceeded with the addition of 1.1 g (w/v) of the beads and incubation for 1 to 2 hours with constant rotation. The beads were, removed under air pressure. Residual beads were removed from solution by microcentrifugation at 11,000×g (14,000 rpm.) for 15 minutes.
Assays were conducted in 1.2 ml tubes in a total assay volume of 200 μl. […] Filters were counted in a RIASTAT gamma counter or washed twice, microwave-dried, and counted in a Pharmacia 1205 Beta Plate flatbed scintillation counter in the presence of a dry scintillant (Pharmacia MeltiLex Scintillator Sheets™). Dissociation constants and slope factors were calculated according to Cheng and Prusoff (Biochem. Pharmacol. 22, 3099-3109; 1973) and Hill (J. Physiol. 40, 109-224; 1910), respectively. analysis of saturation binding data was performed using nonlinear regression least-square curve fitting to the nontransformed data or by Scathard transformation (Ann. N.Y.Acad. Sci., 51, 660672;1949).

soluble AII receptor = target: T1, soluble AII receptor (Bos taurus, UniProt P25104); experiment: [125I]-SI-AII radioligand binding, CHAPS-solubilized SM2-treated BAMM; set-up: species or system bovine; conditions: for Inhibition of [125I]-SI-AII binding (in words): competition experiments
T1 construct: from tissue; host or cells: bovine adrenal microsomal membranes, solubilized with CHAPS and treated with SM2 beads
T1 sequence (P25104 1-359): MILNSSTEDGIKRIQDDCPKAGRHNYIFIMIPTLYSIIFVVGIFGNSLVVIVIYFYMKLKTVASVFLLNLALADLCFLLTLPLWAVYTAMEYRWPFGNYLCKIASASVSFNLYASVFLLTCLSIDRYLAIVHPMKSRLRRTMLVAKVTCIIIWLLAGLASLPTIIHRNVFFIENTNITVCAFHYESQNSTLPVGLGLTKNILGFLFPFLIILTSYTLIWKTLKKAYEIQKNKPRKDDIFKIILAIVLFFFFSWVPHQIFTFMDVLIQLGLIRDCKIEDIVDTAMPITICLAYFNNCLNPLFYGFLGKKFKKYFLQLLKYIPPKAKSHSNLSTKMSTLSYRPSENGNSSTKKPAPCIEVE
Protocol: as §1
Assays were conducted in 1.2 ml tubes in a total assay volume of 200 μl. The incubation mixture contained 0.1 to 0.2 nM [^125 I]-SI-AII and incubation buffer (50 mM Tris, pH 7.4 at 4° C., 150 mM sodium chloride, 0.1% bovine serum albumin, 0.24 TI units/ml aprotinin, 0.1 mg/ml 1,10-phenanthroline). The binding reaction was initiated by the addition of 20 to 100 μg of BAMM or soluble BAMM diluted in incubation buffer. Binding proceeded at 37° C. for 2 hours with constant agitation. Reactions were terminated and bound and free radioligand separated by rapid filtration over double-thickness glass-fiber filters which had been presoaked in 0.3% polyethyleneimine in 50 mM Tris (pH 7.4) utilizing a Tomtec™96-well cell harvester set at four pulse washes. Filters were counted in a RIASTAT gamma counter or washed twice, microwave-dried, and counted in a Pharmacia 1205 Beta Plate flatbed scintillation counter in the presence of a dry scintillant (Pharmacia MeltiLex Scintillator Sheets™). Dissociation constants and slope factors were calculated according to Cheng and Prusoff (Biochem. Pharmacol. 22, 3099-3109; 1973) and Hill (J. Physiol. 40, 109-224; 1910), respectively. analysis of saturation binding data was performed using nonlinear regression least-square curve fitting to the nontransformed data or by Scathard transformation (Ann. N.Y.Acad. Sci., 51, 660672;1949).

membrane AII receptor = target: T2, membrane AII receptor (Bos taurus, UniProt P25104); experiment: [125I]-SI-AII radioligand binding, bovine adrenal microsomal membranes (BAMM)
T2 construct: Aliquots (5 mg/ml) of the bovine adrenal microsomal membranes (BAMM) were stored; from tissue; host or cells: bovine adrenal, microsomal membranes
T2 sequence (P25104 1-359): T1 sequence (P25104 1-359)
Protocol: All the procedures were performed at 4° C. unless otherwise indicated. Bovine adrenals were cleaned of connective tissue and fat and were minced in 10 volumes of homogenization buffer (10 mM Tris, pH 7.4 at 4° C. containing 0.25M sucrose and 1 mM ethylenediaminetetraacetic acid). The minced tissue was homogenized using a Brinkmann polytron homogenizer (five ten second bursts at setting #8). The homogenate was centrifuged at 3,000×g (5,000 rpm) in a Sorvall SS34 rotor) for 10 minutes and the supernatant filtered through 3 layers of cheesecloth. The filtrate was centrifuged at 12,000×g (10,000 rpm in a Sorvall SS34 rotor) for 15 minutes. […]

## O=C(O)c1cc(SSc2ccc([N+](=O)[O-])c(C(=O)O)c2)ccc1[N+](=O)[O-] [DTNB, dithionitrobenzoic acid]
AII receptor
  % recovery of solubilized AII receptor: 11.5 ± 1.5%

## O[C@H](CS)[C@H](O)CS (racemic) [DTT, dithiothreitol]
Soluble AII receptor
  inhibition at 5000 µM: ~90%
Soluble AII receptor; read-out: DTT concentration giving 50% reduction in ligand activity
  IC50: 500 to 1000 µM

## CCCCc1nc(Cl)c(CO)n1Cc1ccc(-c2ccccc2-c2nn[nH]n2)cc1 [DuP 753]
Soluble AII receptor
  Kd: 2540 nM
Soluble AII receptor; SM2-treated soluble receptors
  Inhibition of [125I]-SI-AII binding (in words): complete
Soluble AII receptor; Soluble preparation, means ± SEM, n = 3 to 5
  Slope Factor: 0.51 ± 0.05
Membrane AII receptor
  Kd: 202 ± 22 nM
Membrane AII receptor; BAMM, means ± SEM, n = 3 to 5
  Slope Factor: 0.91 ± 0.03

## Cc1cc(Cn2cnc3c2CC(C(=O)O)N(C(=O)C(c2ccccc2)c2ccccc2)C3)ccc1N (stereo not shown) [PD123177]
Soluble AII receptor; SM2-treated soluble receptors
  Inhibition of [125I]-SI-AII binding (in words): negligible
Soluble AII receptor; SM2-treated soluble receptors, read-out: inhibition constant
  Ki: > 100 µM
